# In US20250213584A1, “ERCC1-XPF COMPLEX INHIBITOR COMPOUNDS AND THE USE THEREOF IN THE TREATMENT OF CANCER” (FUNDAÇÃO D. ANNA DE SOMMER CHAMPALIMAUD E DR. CARLOS MONTEZ …, priority 2023, published 2025):
# What was measured:
# ERCC1-XPF = molecular target: T1, ERCC1-XPF (Homo sapiens, UniProt Q92889); details: literature; cited from earlier work
# T1 sequence (Q92889 1-916): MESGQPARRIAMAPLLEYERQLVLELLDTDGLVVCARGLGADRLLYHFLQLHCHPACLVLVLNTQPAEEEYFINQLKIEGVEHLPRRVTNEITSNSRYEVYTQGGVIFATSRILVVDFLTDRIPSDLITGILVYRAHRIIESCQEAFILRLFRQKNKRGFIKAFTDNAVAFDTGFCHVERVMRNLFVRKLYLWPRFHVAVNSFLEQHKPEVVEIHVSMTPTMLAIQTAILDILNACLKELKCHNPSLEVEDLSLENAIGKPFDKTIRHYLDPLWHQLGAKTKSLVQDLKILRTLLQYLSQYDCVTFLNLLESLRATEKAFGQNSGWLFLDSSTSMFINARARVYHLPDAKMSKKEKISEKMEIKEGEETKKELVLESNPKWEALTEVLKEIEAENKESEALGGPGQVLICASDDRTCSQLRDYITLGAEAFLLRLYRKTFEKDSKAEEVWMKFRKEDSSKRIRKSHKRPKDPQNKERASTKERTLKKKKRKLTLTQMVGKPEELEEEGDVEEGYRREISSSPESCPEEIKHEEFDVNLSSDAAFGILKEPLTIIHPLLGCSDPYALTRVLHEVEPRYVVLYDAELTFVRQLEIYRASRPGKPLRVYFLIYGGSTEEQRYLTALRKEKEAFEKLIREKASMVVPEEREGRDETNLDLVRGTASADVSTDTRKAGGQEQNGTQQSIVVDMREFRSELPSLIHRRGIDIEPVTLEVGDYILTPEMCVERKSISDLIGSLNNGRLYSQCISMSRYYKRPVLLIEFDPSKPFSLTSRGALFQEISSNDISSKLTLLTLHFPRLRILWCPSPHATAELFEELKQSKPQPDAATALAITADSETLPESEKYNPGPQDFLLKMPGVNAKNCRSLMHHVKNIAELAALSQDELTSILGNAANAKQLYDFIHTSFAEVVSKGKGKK
# H1299 cells [1] = experiment: Crystal violet (CV) staining assay, cisplatin cytotoxicity; format: cell-based, human; details: 72-h incubation
# Description: To evaluate the cisplatin cytotoxicity effect in the selected H1299 cell line (highest ERCC1 expression), a concentration-response profile was established resorting to two mechanistically different cell viability assays, the CV staining and the MTS reduction assays (FIG. 9). The IC50 values for cisplatin were also calculated for a 72-h incubation period based on its dose-response profile. The cytotoxicity of cisplatin in H1299 cells was evaluated according to a previously described crystal violet (CV) staining protocol. This assay allows the colorimetric determination of adherent cells by staining their nucleus. First, cells were inoculated at a density of approximately 3×10^3 cells/well in 200 μL of complete culture medium in 96-well plates. After adherence (24 h), culture medium was renewed, and the cells were incubated with a range of 1-30 μM of cisplatin for another 72 h. After incubation, cells were washed with warm PBS to remove non-adherent cells (non-viable cells). The adherent cells were then fixated with ice-cold 96% ethanol for 10 min and stained with 0.1% crystal violet in 10% ethanol for 5 min. […] Absorbance was measured at 595 nm (OD595) using a SPECTROstar OMEGA microplate reader. […] The IC50 values were calculated based on the obtained concentration-response curves using GraphPad Prism® 9.0 (GraphPad Software, Inc., La Jolla, CA, USA).
# H1299 cells [2] = experiment: MTS reduction assay, cisplatin cytotoxicity; format: cell-based, human
# Description: To evaluate the cisplatin cytotoxicity effect in the selected H1299 cell line (highest ERCC1 expression), a concentration-response profile was established resorting to two mechanistically different cell viability assays, the CV staining and the MTS reduction assays (FIG. 9). The IC50 values for cisplatin were also calculated for a 72-h incubation period based on its dose-response profile. The 3-(4,5-dimethylthiazol-2-yl)-5-(3-carboxymethoxyphenyl)-2-(4-sulfophenyl)-2H-tetrazolium salt (MTS) reduction assay was carried out as a confirmatory assay of cell viability. This methodology is commonly used in in vitro toxicology and is based on the enzymatic reduction of a tetrazolium salt in viable cells by mitochondrial enzymes (NAD-dependent dehydrogenase) with the formation of a colored formazan product. […] H1299 cells were incubated for 2 h30 with the MTS reagent and the absorbance was measured at 490 nm and 690 nm (reference wavelength) using a SPECTROstar OMEGA microplate reader. Absorbance values presented by vehicle-treated control cells corresponded to 100% of cell viability. […] The IC50 was also calculated based on the concentration-response curve using GraphPad Prism® 9.0.
SMILES,disruption of ERCC1-XPF interaction (ERCC1-XPF),IC50 (H1299 cells [1]) [µM],IC50 (H1299 cells [2]; 72-h incubation) [µM],"cell death (H1299 cells [2]; cisplatin alone at 1 μM, 72 h)"
COc1ccc2nc3cc(Cl)ccc3c(Nc3ccc(O)c(CN4CCN(C)CC4)c3)c2c1 [F06],ability to disrupt the interaction between ERCC1 and XPF,–,–,–
N.N.[Cl][Pt][Cl] [cisplatin],–,3,3.7,10-15%
